Assay results: ChEMBL document CHEMBL4765481, “Sialyltransferase Inhibitors Suppress Breast Cancer Metastasis” (J Med Chem, 2021)

What was measured:
[1] = target: T1, Beta-galactoside alpha-2,6-sialyltransferase 1 (Homo sapiens, UniProt P15907); experiment: Inhibition of human alpha-2,6-ST6GAL1 assessed as reduction in sialylated-product formation using Gal-beta1-4GlcNac and CMP-NeuSAc incubated for 15 mins by reverse-phase HPLC analysis
T1 sequence (P15907 whole entry): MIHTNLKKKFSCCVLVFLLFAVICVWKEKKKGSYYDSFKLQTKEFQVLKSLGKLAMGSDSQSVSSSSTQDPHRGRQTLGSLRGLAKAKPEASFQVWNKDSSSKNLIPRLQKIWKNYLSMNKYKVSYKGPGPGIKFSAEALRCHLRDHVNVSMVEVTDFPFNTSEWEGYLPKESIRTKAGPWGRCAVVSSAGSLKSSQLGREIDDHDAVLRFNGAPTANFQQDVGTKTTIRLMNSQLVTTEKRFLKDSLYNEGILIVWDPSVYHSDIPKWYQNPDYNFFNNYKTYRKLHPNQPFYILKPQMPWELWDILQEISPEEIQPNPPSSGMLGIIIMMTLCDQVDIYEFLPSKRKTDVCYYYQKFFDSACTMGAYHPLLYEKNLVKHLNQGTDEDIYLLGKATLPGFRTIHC

[2] = target: T2, Sialyltransferase ST3Gal-I (Rattus norvegicus) (UniProt Q6H8N0); experiment: Inhibition of rat alpha-2,3-O-ST3GALI assessed as reduction in sialylated-product formation at 500 uM using p-nitrophenyl T-antigen and CMP-NeuSAc incubated for 15 mins by reverse-phase HPLC analysis relative to control
T2 sequence (whole entry): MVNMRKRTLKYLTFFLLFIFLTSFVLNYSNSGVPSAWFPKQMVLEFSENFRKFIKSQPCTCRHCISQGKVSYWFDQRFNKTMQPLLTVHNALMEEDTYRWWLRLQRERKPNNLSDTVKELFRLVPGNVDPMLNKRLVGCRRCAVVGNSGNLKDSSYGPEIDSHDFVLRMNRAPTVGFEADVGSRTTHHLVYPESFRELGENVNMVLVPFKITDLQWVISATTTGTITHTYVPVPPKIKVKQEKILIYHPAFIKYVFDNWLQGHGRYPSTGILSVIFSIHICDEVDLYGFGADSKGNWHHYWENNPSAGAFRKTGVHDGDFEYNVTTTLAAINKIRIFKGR

[3] = Selectivity ratio of IC50 for of inhibition of rat alpha-2,3-O-ST3GALI to IC50 for inhibition of human alpha-2,6-ST6GAL1
[4] = Toxicity in human MDA-MB-231 cells assessed as cell survival at >60 uM relative to control; assay type: cell-based; conditions: read-out: Survival
[5] = target: T3, Beta-galactoside alpha-2,6-sialyltransferase 1 (Homo sapiens) (UniProt P15907); experiment: Inhibition of human alpha-2,6-ST6GAL1 assessed as reduction in sialylated-product formation at 100 uM using Gal-beta1-4GlcNac and CMP-NeuSAc incubated for 15 mins by reverse-phase HPLC analysis relative to control
T3 sequence (whole entry): T1 sequence (P15907 whole entry)

[6] = target: T2, Sialyltransferase ST3Gal-I (Rattus norvegicus); experiment: Inhibition of rat alpha-2,3-O-ST3GALI assessed as reduction in sialylated-product formation at 1 mM using p-nitrophenyl T-antigen and CMP-NeuSAc incubated for 15 mins by reverse-phase HPLC analysis relative to control
[7] = Apparent permeability at pH 7.4 by PAMPA
[8] = target: T4, CMP-N-acetylneuraminate-beta-1,4-galactoside alpha-2,3-sialyltransferase (Rattus norvegicus, UniProt Q02734); experiment: Inhibition of rat alpha-2,3-N-ST3GALIII assessed as reduction in sialylated-product formation using Gal-beta1-4Glc and CMP-NeuSAc incubated for 1.5 hrs by reverse-phase HPLC analysis
T4 sequence (Q02734 whole entry): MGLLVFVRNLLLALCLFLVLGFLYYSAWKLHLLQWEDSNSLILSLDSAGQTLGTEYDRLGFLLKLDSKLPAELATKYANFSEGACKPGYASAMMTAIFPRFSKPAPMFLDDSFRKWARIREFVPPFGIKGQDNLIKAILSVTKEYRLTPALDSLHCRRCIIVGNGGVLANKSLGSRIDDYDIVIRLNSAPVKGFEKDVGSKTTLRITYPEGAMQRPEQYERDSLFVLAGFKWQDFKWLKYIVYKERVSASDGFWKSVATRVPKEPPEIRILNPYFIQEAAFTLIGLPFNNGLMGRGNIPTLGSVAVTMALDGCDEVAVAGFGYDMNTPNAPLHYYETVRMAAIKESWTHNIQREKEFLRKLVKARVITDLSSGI

Rattus norvegicus [9] = organism: Rattus norvegicus; experiment: Selectivity ratio of inhibition of rat alpha-2,3-O-ST3GALI at 500 uM to IC50 for inhibition of rat alpha-2,3-N-ST3GALIII
[10] = target: T5, Sialyltransferase ST3Gal-I (Rattus norvegicus, UniProt Q6H8N0); experiment: Inhibition of rat alpha-2,3-O-ST3GALI assessed as reduction in sialylated-product formation using p-nitrophenyl T-antigen and CMP-NeuSAc incubated for 15 mins by reverse-phase HPLC analysis
T5 sequence (Q6H8N0 whole entry): T2 sequence (whole entry)

Rattus norvegicus [11] = organism: Rattus norvegicus; experiment: Selectivity ratio of IC50 for of inhibition of rat alpha-2,3-O-ST3GALI to IC50 for inhibition of rat alpha-2,3-N-ST3GALIII
Rattus norvegicus [12] = organism: Rattus norvegicus; experiment: Selectivity ratio of inhibition of rat alpha-2,3-O-ST3GALI at 1000 uM to IC50 for inhibition of rat alpha-2,3-N-ST3GALIII

COc1ccc2c(CC(=O)N[C@@H](CC(=O)O)C(=O)O[C@@H]3CC[C@@]4(C)[C@H](CC[C@@H]5[C@@H]4CC[C@]4(C)[C@@H]([C@H](C)CCC(=O)OCCN=[N+]=[N-])CC[C@@H]54)C3)cc(=O)oc2c1
IC50 [1]: 5.6 µM | inhibition [2]: 0% | Ratio IC50 [3]: > 89 | viability [4]: > 90%

COc1ccc2c(CC(=O)N[C@@H](CC(=O)O)C(=O)O[C@@H]3CC[C@@]4(C)[C@H](CC[C@@H]5[C@@H]4CC[C@]4(C)[C@@H]([C@H](C)CCC(=O)OCCOCCN=[N+]=[N-])CC[C@@H]54)C3)cc(=O)oc2c1
IC50 [1]: 5.1 µM | inhibition [2]: 0% | Ratio IC50 [3]: > 97 | viability [4]: > 90%

C[C@H](CCC(=O)NCC(=O)O)[C@H]1CC[C@H]2[C@@H]3CC[C@@H]4C[C@H](O)CC[C@]4(C)[C@H]3CC[C@]12C
inhibition [5]: 9% | inhibition [2]: 15% | inhibition [6]: 41%

Cn1c(=O)c2[nH]cnc2n(C)c1=O.O [THEOPHYLLINE]
Papp [7]: 1.4 ×10⁻⁶ cm/s

COc1ccc2c(CC(=O)N[C@@H](CC(=O)O)C(=O)O[C@@H]3CC[C@@]4(C)[C@H](CC[C@@H]5[C@@H]4CC[C@]4(C)[C@@H]([C@H](C)CCC(=O)OCCOCCOCCN=[N+]=[N-])CC[C@@H]54)C3)cc(=O)oc2c1
IC50 [1]: 4.6 µM | inhibition [2]: 0% | Ratio IC50 [3]: > 109 | viability [4]: > 90%

C[C@H](CCC(=O)OCCN=[N+]=[N-])[C@H]1CC[C@H]2[C@@H]3CC[C@@H]4C[C@H](OC(=O)[C@H](CC(=O)O)Nc5ccc([N+](=O)[O-])c6nonc56)CC[C@]4(C)[C@H]3CC[C@]12C
IC50 [8]: 0.8 µM | IC50 [1]: 4.2 µM | inhibition [2]: 0% | Selectivity ratio (Rattus norvegicus [9]): > 625 | Ratio IC50 [3]: > 119 | viability [4]: > 90%

C[C@H](CCC(=O)O)[C@H]1CC[C@H]2[C@@H]3CC[C@@H]4C[C@H](OC(=O)[C@@H](N)CC(=O)O)CC[C@]4(C)[C@H]3CC[C@]12C
IC50 [8]: 12 µM | IC50 [1]: 15.8 µM | IC50 [10]: 39 µM | Ratio IC50 (Rattus norvegicus [11]): 3 | Ratio IC50 [3]: 3

C[C@@H]1O[C@@H](O[C@H]2[C@H](O[C@H]3[C@H](O[C@H]4CC[C@@]5(C)[C@@H](CC[C@]6(C)[C@@H]5CC=C5[C@@H]7CC(C)(C)C[C@@H](O)[C@]7(C)CC[C@]56C)[C@@]4(C)CO)O[C@H](C(=O)O)[C@@H](O)[C@@H]3O)O[C@H](CO)[C@H](O)[C@@H]2O)[C@H](O)[C@H](O)[C@H]1O
inhibition [5]: 68% | inhibition [2]: 59% | inhibition [6]: 83%

C[C@H](CCC(=O)OCCOCCOCCOCCN=[N+]=[N-])[C@H]1CC[C@H]2[C@@H]3CC[C@@H]4C[C@H](OC(=O)[C@H](CC(=O)O)NC(=O)c5ccc([N+](=O)[O-])cc5)CC[C@]4(C)[C@H]3CC[C@]12C
IC50 [1]: 5.7 µM | inhibition [2]: 0% | Ratio IC50 [3]: > 88 | viability [4]: > 90%

C[C@H](CCC(=O)OCCOCCOCCOCCOCCN=[N+]=[N-])[C@H]1CC[C@H]2[C@@H]3CC[C@@H]4C[C@H](OC(=O)[C@H](CC(=O)O)Nc5ccc([N+](=O)[O-])c6nonc56)CC[C@]4(C)[C@H]3CC[C@]12C
IC50 [8]: 1 µM | IC50 [1]: 5 µM | inhibition [2]: 0% | Selectivity ratio (Rattus norvegicus [9]): > 516 | Ratio IC50 [3]: > 99 | viability [4]: > 90%

C[C@H](CCC(=O)OCCN=[N+]=[N-])[C@H]1CC[C@H]2[C@@H]3CC[C@@H]4C[C@H](OC(=O)[C@H](CC(=O)O)NC(=O)c5ccc([N+](=O)[O-])cc5)CC[C@]4(C)[C@H]3CC[C@]12C
IC50 [1]: 7.2 µM | inhibition [2]: 0% | Ratio IC50 [3]: > 70 | viability [4]: > 90%

C[C@H](CCC(=O)O)[C@H]1CC[C@H]2[C@@H]3CC[C@@H]4C[C@H](OC(=O)[C@H](CCC(=O)O)Nc5ccc([N+](=O)[O-])c6nonc56)CC[C@]4(C)[C@H]3CC[C@]12C
IC50 [8]: 0.9 µM | IC50 [10]: 13.2 µM | Ratio IC50 (Rattus norvegicus [11]): 15 | Ratio IC50 [3]: 9

C[C@H](CCC(=O)OCCOCCN=[N+]=[N-])[C@H]1CC[C@H]2[C@@H]3CC[C@@H]4C[C@H](OC(=O)[C@H](CC(=O)O)Nc5ccc([N+](=O)[O-])c6nonc56)CC[C@]4(C)[C@H]3CC[C@]12C
IC50 [8]: 0.77 µM | IC50 [1]: 4.33 µM | inhibition [2]: 0% | inhibition [6]: 74% | Selectivity ratio (Rattus norvegicus [9]): > 649 | Selectivity ratio (Rattus norvegicus [12]): < 1300 | Ratio IC50 [3]: > 116 | viability [4]: > 90%

C[C@H](CCC(=O)OCCOCCOCCN=[N+]=[N-])[C@H]1CC[C@H]2[C@@H]3CC[C@@H]4C[C@H](OC(=O)[C@H](CC(=O)O)NC(=O)c5ccc([N+](=O)[O-])cc5)CC[C@]4(C)[C@H]3CC[C@]12C
IC50 [1]: 5.4 µM | inhibition [2]: 0% | Ratio IC50 [3]: > 94 | viability [4]: > 90%

COc1ccc2c(CC(=O)N[C@@H](CC(=O)O)C(=O)O[C@@H]3CC[C@@]4(C)[C@H](CC[C@@H]5[C@@H]4CC[C@]4(C)[C@@H]([C@H](C)CCC(=O)OCCOCCOCCOCCOCCN=[N+]=[N-])CC[C@@H]54)C3)cc(=O)oc2c1
IC50 [1]: 5.7 µM | inhibition [2]: 0% | Ratio IC50 [3]: > 88 | viability [4]: > 90%

COc1ccc2c(CC(=O)N[C@@H](CC(=O)O)C(=O)O[C@@H]3CC[C@@]4(C)[C@H](CC[C@@H]5[C@@H]4CC[C@]4(C)[C@@H]([C@H](C)CCC(=O)OCCOCCOCCOCCN=[N+]=[N-])CC[C@@H]54)C3)cc(=O)oc2c1
IC50 [1]: 5 µM | inhibition [2]: 0% | Ratio IC50 [3]: > 101 | viability [4]: > 90%

C[C@H](CCC(=O)OCCOCCN=[N+]=[N-])[C@H]1CC[C@H]2[C@@H]3CC[C@@H]4C[C@H](OC(=O)[C@H](CC(=O)O)NC(=O)c5ccc([N+](=O)[O-])cc5)CC[C@]4(C)[C@H]3CC[C@]12C
IC50 [1]: 6.7 µM | inhibition [2]: 0% | Ratio IC50 [3]: > 74 | viability [4]: > 90%

C[C@H](CCC(=O)OCCOCCOCCOCCOCCN=[N+]=[N-])[C@H]1CC[C@H]2[C@@H]3CC[C@@H]4C[C@H](OC(=O)[C@H](CC(=O)O)NC(=O)c5ccc([N+](=O)[O-])cc5)CC[C@]4(C)[C@H]3CC[C@]12C
IC50 [1]: 7.5 µM | inhibition [2]: 0% | Ratio IC50 [3]: > 67 | viability [4]: > 90%
